{"source": "patent US8445491B2", "about": "“Wnt protein signalling inhibitors” (The Board of Regents of the University of Texas System, priority 2008, dated 2013)", "key": {"[1]": {"system": "lung cancer and colorectal cancer cells", "test": "cancer cell growth study (Cell Titer Glo)", "type": "cell-based", "settings": "6 days", "description": "FIGS. 7A-D. Chemical inhibition of Wnt-mediated cellular responses in cancer. FIG. 7A. Growth-inhibitory effects of IWR and IWP compounds on cancerous cells. Cells derived from either lung or colon cancer, with known molecular changes that result in aberrant Wnt pathway response, were treated with increasing concentrations of either IWR-4 or IWP-1 for 6 days with medium and compounds replenished daily. Cell viability was measured using Cell-Titer Glo assays. FIG. 7B. Biochemical changes of Wnt pathway components in cancerous cells treated with either IWR or IWP compounds. Lysates from H460, or DLD-1 cells were treated with IWR or IWP and Western blotted for either Dvl2, Axin2, Axin1, or Actin. Whereas both cell lines express […], Axin2 expression is absent in H460 cells. FIG. 7C. Genetic evidence for non-β-catenin dependent Wnt-mediated signalling in cancerous cells. […]\nIn experiments involving IWR and IWP treatments, cancer cells were seeded into a 24 well format (2.5K cells/well) in the presence of the noted Wnt pathway inhibitors (0.5% DMSO final) Media and compound changed every 24 hours for 5 days. On day 6, ATP levels were quantitated via cell titer glo assay (Promega). […] ATP levels were measured 120 hrs later via Cell Titer Glo assay (Promega)."}, "Wnt3A": {"system": "Wnt3A", "test": "Wnt3A phase separation (lipidation) assay in HEK 293 cells", "type": "cell-based, human", "settings": "detergent solubility fractionation assay", "description": "Biochemical studies involving L-Wnt-STF or DLD-1 cells were performed in either 48- or 6-well format with IWR (10 μM) or IWP (5 μM) compounds and/or cycloheximide (100 μM) in a 48 hr assay period. Targeting of APC using RNAi in L-cells was achieved by transfecting cells with SMARTPool APC siRNAs (50 nM; Dharmacon). E-cadherin depletion studies were performed at 4° C. using DLD-1 cells lysed in PBS/1% NP-40/protease inhibitors. For Wnt3A phase separation assays, murine Porcupine (C isoform) and human Wnt3A-myc were transfected into HEK 293 cells (6 well format, 400K cells/well) as appropriate using Effectene transfection reagent (QIAGEN). After 48 hrs of incubation, cells were lysed for 15 min, RT with PL buffer (distilled water, 10 mM tris-HCl, 150 mM NaCl)/1% TritionX-114. Lysate was briefly chilled on ice, pelleted for 10 min 4° C., and the supernatant combined with an equal volume of PL buffer/3.5% TX-114. Solutions were rotated for 15 min at 4° C., placed at 37° C. for 5 mM followed by an additional centrifugation for 5 mM at 2000 g, RT. Distinct phases were collected and combined with PL buffer to a total volume of 1 mL Samples were chilled on ice, ConA sepharose (GE Healthcare) added, and samples rotated for 2 hrs at 4° C. Beads washed 2× with PL buffer, and a Western blot performed with eluted proteins using an anti-c-myc antibody. […]"}, "[2]": {"system": "caudal fin regeneration in zebrafish", "test": "caudal fin regeneration assay in zebrafish", "type": "in vivo", "settings": "for caudal fin regeneration after mechanical resection: zebrafish, compound in water 10 μM, 4 days", "description": "FIG. 25. […] Arrows indicate the points of resection.\n(§1) 6 month-old zebrafish were incubated 8 or 14 days at 28.5° C. in aquarium water supplemented with 10 μM IWR or in 0.1% DMSO as a control. Fish were fed standard diet, and solutions were changed daily. At the end of the exposure, zebrafish were incubated in 1 mM BrdU in aquarium water for 2 hrs at room temperature, then washed several times in aquarium water, anesthetized with 0.1% Tricaine, and fixed in 4% paraformaldehyde for 48 hrs at 4° C. The intestine was dissected out, dehydrated, paraffin embedded and sectioned at […] intervals. Sections were stained with Hematoxylin and Eosin or processed for BrdU immunohistochemistry as described (Shepard et al., 2005). Sections from 8 animals each from IWR and DMSO groups were independently scored by four blinded observers. The total number of intestinal folds and total number of BrdU-positive nuclei in the mid and distal sections of the intestine were counted from each section. For caudal fin regeneration assays, zebrafish, 3-6 months of age, were anaesthetized in 0.2% Tricaine and half of the fin was resected using a razor blade to remove Amputees were reared at 31° C. in tanks containing either 300 ml of water with DMSO or IWR (10 μM). Water and compounds were replenished daily for a total assay period of 4 days."}, "[3]": {"system": "Wnt/β-catenin pathway response induced by Wnt1, Wnt2, or Wnt3a", "test": "STF reporter, pathway activity induced by Wnt1, Wnt2 or Wnt3a", "type": "cell-based", "settings": "FL normalized to RL", "description": "FIGS. 9A-C. […] FIG. 9A. Summary of results relating to IWR and IWP compounds from the screening process. Wnt pathway tests were performed in either cells responding to autonomously-produced Wnt protein (L-Wnt-STF cells) or exogenously provided Wnt in conditioned medium (HEK293 cells). FIG. 9B. […] Left: schematic of Wnt-Gaussia luciferase (Wnt-GL) fusion protein used to monitor levels of secreted Wnt protein in the cell medium. Right: levels of Wnt-GL but not GL secreted from cells treated with IWP compounds are decreased as compared to cells treated with carrier. The Wnt-GL protein elicits levels of Wnt/β-catenin pathway response similar to that of Wnt3a protein (data not shown). FIG. 9C. […] FL activity was normalized to control RL activity as before."}, "[4]": {"system": "Axin2 and β-catenin in DLD-1 cells", "test": "biochemical studies of destruction complex components in DLD-1 cells (Western blot, E-cadherin depletion, cycloheximide)", "type": "cell-based", "description": "(§2) FIGS. 5A-H. Stabilization of the Axin2 destruction complex by IWR compounds. FIG. 5A. IWR compounds block β-catenin accumulation induced by loss of APC tumor suppressor. […] FIG. 5B. IWRs block aberrant Wnt/β-catenin pathway activity in the colorectal cancer (CRC) cells. Aberrant Wnt/β-catenin pathway activity in DLD-1 cells, CRC cells which harbor a loss-of-function mutation in APC, is abrogated by IWR compounds. Pathway activity was monitored using the STF reporter and normalized to RL control reporter as before. FIG. 5C. IWRs induce accumulation of Axin2 protein. Western blot analysis of proteins involved in regulating β-catenin levels in DLD-1 cells reveal accumulation of Axin2 protein in cells treated with IWR compounds with little change in expression levels of other pathway components. Note that the APC protein is truncated in these cells. FIG. 5D. Levels of β-catenin in CRC cells available for Wnt response are decreased in the presence of IWR compounds. […] FIG. 5E. IWR stabilizes Axin2 protein. Rapid destruction of Axin2 protein is apparent in DLD-1 cells treated with the protein synthesis inhibitor cycloheximide. […] FIG. 5F. […] FIG. 5G. […] FIG. 5H. A proposed model of IWR action. Addition of IWR to cells induces stabilization of Axin2 protein with consequential increase in β-catenin destruction.\n(§3) Targeting of APC using RNAi in L-cells was achieved by transfecting cells with SMARTPool APC siRNAs (50 nM; Dharmacon). E-cadherin depletion studies were performed at 4° C. using DLD-1 cells lysed in PBS/1% NP-40/protease inhibitors. For Wnt3A phase separation assays, murine Porcupine (C isoform) and human Wnt3A-myc were transfected into HEK 293 cells (6 well format, 400K cells/well) as appropriate using Effectene transfection reagent (QIAGEN). After 48 hrs of incubation, cells were lysed for 15 min, RT with PL buffer (distilled water, 10 mM tris-HCl, 150 mM NaCl)/1% TritionX-114. Lysate was briefly chilled on ice, pelleted for 10 min 4° C., and the supernatant combined with an equal volume of PL buffer/3.5% TX-114. […]"}, "β-catenin": {"system": "β-catenin", "test": "β-catenin accumulation in L-cells treated with APC siRNAs", "type": "cell-based", "settings": "mouse L-cells treated with APC siRNAs", "description": "as §2, with “destruction. […]” for “destruction.”"}, "[5]": {"system": "zebrafish gastrointestinal (GI) tract", "test": "homeostatic renewal of the zebrafish GI tract (BrdU incorporation, histology)", "type": "in vivo", "description": "as §1"}, "Wnt/β-catenin pathway": {"system": "Wnt/β-catenin pathway", "test": "Western blot of Wnt/β-catenin pathway markers (LRP6 and Dvl2 phosphorylation, β-catenin accumulation) in L-Wnt-STF cells", "type": "cell-based, mouse", "settings": "L-Wnt cells", "description": "FIG. 3. Biochemical evidence for Wnt/β-catenin pathway inhibition by IWR and IWP compounds. […] Cellular lysates were subjected to Western blot analysis to determine levels of LRP6 and Dvl2 phosphorylation, and β-catenin accumulation, all biochemical events associated with Wnt/β-catenin pathway activity. Predictably, IWPs blocked all three biochemical events, whereas IWRs appear to block β-catenin accumulation without affecting LRP6 and Dv12 phosphorylation. Kif3A and tubulin serve as loading controls.\nas §3, with “Biochemical studies involving L-Wnt-STF or DLD-1 cells were performed in either 48- or 6-well format with IWR (10 μM) or IWP (5 μM) compounds and/or cycloheximide (100 μM) in a 48 hr assay period. Targeting” for “Targeting”, “TritionX-114.” for “TritionX-114. Lysate was briefly chilled on ice, pelleted for 10 min 4° C., and the supernatant combined with an equal volume of PL buffer/3.5% TX-114.”"}}}
{"compound": "COc1ccc(-n2nc(C(=O)NCC(=O)Nc3nc4ccc(OC)cc4s3)c3ccccc3c2=O)cc1", "note": "[IWP-1]", "values": [{"measurement": "inhibition of cancerous cell growth", "setting": "[1]", "result": "consistently more effective than IWR-4"}]}
{"compound": "Cc1ccc2nc(NC(=O)CSc3nc4c(c(=O)n3-c3ccccc3)SCC4)sc2c1", "note": "[IWP-2]", "values": [{"measurement": "levels of lipidated Wnt3A", "setting": "Wnt3A", "result": "decreased"}, {"measurement": "caudal fin regeneration after mechanical resection", "setting": "[2]", "result": "failed to do so"}, {"measurement": "pathway activity induced by Wnt1, Wnt2, or Wnt3a", "setting": "[3]", "result": "decreased"}]}
{"compound": "O=C(Nc1cccc2cccnc12)c1ccc(N2C(=O)[C@@H]3[C@H](C2=O)[C@@H]2C=C[C@H]3C2)cc1", "note": "[IWR-1]", "values": [{"measurement": "levels of β-catenin not bound to E-cadherin", "setting": "[4]; DLD-1 cells", "result": "decreased"}, {"measurement": "Axin2 protein turn-over", "setting": "[4]; DLD-1 cells with cycloheximide", "result": "little turn-over of Axin2"}, {"measurement": "expression of Wnt/β-catenin target gene Axin2", "setting": "[4]; DLD-1 cells, exposure for 2 h", "result": "decrease in the expression of Axing"}, {"measurement": "β-catenin accumulation induced by loss of APC", "setting": "β-catenin", "result": "can be blocked"}, {"measurement": "adverse signs in treated fish", "setting": "[5]; zebrafish treated for periods longer than 4 days", "result": "lethargy and decreased appetite"}, {"measurement": "BrdU-labeled cells at the base of intestinal folds", "setting": "[5]; zebrafish, 10 μM in water, 8 days", "result": "decreased number"}, {"measurement": "accumulation of β-catenin", "setting": "Wnt/β-catenin pathway", "result": "inhibit accumulation of β-catenin"}, {"measurement": "fin regeneration after removal of the chemical", "setting": "[2]; zebrafish bred 7 d in water containing compound, then removal", "result": "able to regenerate tissue to nearly normal levels after chemical removal"}, {"measurement": "caudal fin regeneration after mechanical resection", "setting": "[2]", "result": "suppressed fin regeneration"}, {"measurement": "pathway activity induced by Wnt1, Wnt2, or Wnt3a", "setting": "[3]", "result": "decreased"}]}
